What all share (test): antibacterial activity, IC50 (concentration required for 50 percent inhibition)
Common to all, as to type: cell-based

One test concerns E.coli HA 2 Leo strain. As to conditions: Escherichia coli, HA2LEOSTRAIN
The source says:
(§1) In the table below, the antibacterial activity of the compound of Example 2 is compared to that of the known compounds Ampicillin and Mecillinam.
(§2) In the table IC50 means the concentration required for 50 percent inhibition.

Test [1] has as its system Salmonella cholerasuis NCTC 5735. To be noted: NCTC5735.
Description: as §1, §2

The next test concerns E.coli W3110 (RTEM). As to conditions: Escherichia coli.
Description: as §1, §2

Test [2] relates to Enterobacter cloacae P 99. To be noted: P99.
Description: as §1, §2

Test [3] has as its system Klebsiella pneumoniae ATCC 10273. To be noted: ATCC10273.
Description: as §1, §2

The subject of test [4] is Pseudomonas aeruginosa PS 18s. To be noted: PS18S.
Description: as §1, §2

For test [5], the system named is Salmonella typhimurium NCTC 5710. As to conditions: Salmonella enterica.
Description: as §1, §2

The subject of test [6] is Pseudomonas aeruginosa BA 2 Leo strain. To be noted: BA2LEOSTRAIN
Description: as §1, §2

≈ marks a conversion by molar mass, not a printed value. Structures can show the parent of a compound that is named as a salt.

Drawing on patent US4246262A, “Derivatives of amidinopenicillanic acid” (Leo Pharmaceutical Products, Ltd. A/S, priority 1977, dated 1981), this text covers IC50 for 3 molecules.

The term IC50 denotes the concentration that inhibits the measured activity by half. High values mean a need for much substance, low ones inhibition by little substance. For the molecule `CC1(C)S[C@@H]2[C@H](NC(=O)[C@H](N)c3ccccc3)C(=O)N2[C@H]1C(=O)O` [Ampicillin], the IC50 in the test on E.coli HA 2 Leo strain was 1.3 µg/mL (≈ 3.72 µM); in test [1], 0.25 µg/mL (≈ 0.715 µM); in the test with E.coli W3110 (RTEM), > 100 µg/mL; in test [2], > 100 µg/mL; in test [3], 79 µg/mL (≈ 226 µM); in test [4], 50 µg/mL (≈ 143 µM). Besides, the IC50 in test [5] was 0.4 µg/mL (≈ 1.14 µM); in test [6] it was > 100 µg/mL.

For the molecule `CC1(C)S[C@@H]2[C@H](N=CN3CCC(CSCCN)CC3)C(=O)N2[C@H]1C(=O)O` [Example 2, 6-[4'-(2"-Aminoethylthiomethyl)-piperidino-methyleneamino]-penicillanic acid hydrochloride], the IC50 in the test with E.coli HA 2 Leo strain was 0.05 µg/mL; in test [1], 0.05 µg/mL; in the test with E.coli W3110 (RTEM), 1.6 µg/mL; in test [2], 0.063 µg/mL; in test [3], 0.32 µg/mL; in test [4], 40 µg/mL. Also, the values for the IC50 in test [5] and in test [6] were 0.05 µg/mL and 50 µg/mL, respectively.

Turning to `CC1(C)S[C@@H]2[C@H](/N=C/N3CCCCCC3)C(=O)N2[C@H]1C(=O)O` [Mecillinam], the IC50 with E.coli HA 2 Leo strain is 0.016 µg/mL (≈ 0.0492 µM); in test [1] it was 0.05 µg/mL (≈ 0.154 µM); with E.coli W3110 (RTEM), 2 µg/mL (≈ 6.15 µM); in test [2] it was 0.1 µg/mL (≈ 0.307 µM); in test [3], ~1 µg/mL (≈ 3.07 µM); in test [4] it was > 100 µg/mL. The IC50 was 0.05 µg/mL (≈ 0.154 µM) in test [5] and > 100 µg/mL in test [6].
